# Laboratory results from US20100178326A1, “AMINOPHOSPHONATE CARRIERS FOR LIPOSOME-BASED DRUG RELEASE SYSTEMS” (priority 2008, published 2010).
# Test: Liposome alanine efflux coupled with enzymatic assays
# Details: alanine efflux after one hour of exposure; alanine-loaded DPPC/cholesterol (3:1) liposomes; carrier added in DMSO; control with no carrier 0.7
# Procedure: Two sets of tests were undertaken to determine the viability of such aminophosphonate compounds as drug carriers in liposome-based delivery systems. The first evaluated liposome efflux coupled with enzymatic assays. In such an experiment, unilamellar liposomes loaded with 300 mM of alanine (an amino acid) were prepared from dipalmitoyl phosphatidyl choline (DPPC) and cholesterol (3:1 molar ratio) (in accordance with Torchilin, V. et al., Liposomes 2003, Second Edition, Oxford Press). Several samples of alanine-loaded liposomes were then loaded further with identical amounts of the different aminophosphonate carriers from above (with DMSO as a solvent) thereby producing different samples with different carriers but with same concentrations. The liposomes were then measured for alanine efflux after one hour of exposure as the conversion of alanine to pyruvate, catalyzed by Glutamic-Pyruvic Transmaminase enzyme, and further to lactate, catalyzed by the enzyme Lactate Dehydrogenase, accompanied by the oxidation of nicotinamide cofactor NADH to NAD^+ (as monitored by UV spectroscopy). The results are tabulated below (with a control of no carrier): […]
row,SMILES,Alanine Flux
1,CCCCOP(=O)(OCCCC)C1(NCc2ccccc2)CCCCC1 [Example 5],4.4 nmol/h × m^2
2,CCCCC(CC)COP(=O)(OCC(CC)CCCC)C(C)(C)NCc1ccccc1 (stereo not shown) [Example 3],4.3 nmol/h × m^2
3,CCCCOP(=O)(OCCCC)C(C)(C)NCc1ccccc1 [Example 2],3.1 nmol/h × m^2
4,CCCCOP(=O)(OCCCC)C1(Nc2ccccc2)CCCCC1 [Example 7],4.4 nmol/h × m^2
5,COP(=O)(OC)C(C)(C)NCc1ccccc1 [Example 1],4.4 nmol/h × m^2
6,COP(=O)(OC)C(C)(C)Nc1ccccc1 [Example 6],7.8 nmol/h × m^2
7,COP(=O)(OC)C1(NCc2ccccc2)CCCCC1 [Example 4],7.2 nmol/h × m^2
